The target in one experiment is T1, H^+/K^+-ATPase (Sus scrofa, UniProt P19156).
T1 construct: used as an enzyme source of the in vitro enzyme reaction assay of proton pump; from tissue; host or cells: hog gastric fundic mucosa (membrane vesicles, lyophilized)
Kind of experiment: Inhibitory effects on proton pump (H^+/K^+-ATPase) activity, hog gastric vesicles. It counts as biochemical. Conditions: K^+ stimulated H^+/K^+-ATPase activity, hog gastric vesicle, Pi measured at 620 nm. In short, it runs like this:
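Lyophilized hog gastric vesicles in Pipes/Tris pH 6.1 were preincubated 5 min with compounds (1% DMSO), then run with ATP for 30 min at 37 °C. Released phosphate was measured by malachite green at 620 nm; K^+-stimulated activity taken as the difference between reactions with and without K^+.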

The target of experiment [1] is T2, hog gastric H^+/K^+-ATPase (Sus scrofa, UniProt P19156).
T2 construct: from tissue; host or cells: hog fundic mucosa (gastric vesicles / microsomes, lyophilized)
T2 sequence (P19156 2-1034 limits assumed): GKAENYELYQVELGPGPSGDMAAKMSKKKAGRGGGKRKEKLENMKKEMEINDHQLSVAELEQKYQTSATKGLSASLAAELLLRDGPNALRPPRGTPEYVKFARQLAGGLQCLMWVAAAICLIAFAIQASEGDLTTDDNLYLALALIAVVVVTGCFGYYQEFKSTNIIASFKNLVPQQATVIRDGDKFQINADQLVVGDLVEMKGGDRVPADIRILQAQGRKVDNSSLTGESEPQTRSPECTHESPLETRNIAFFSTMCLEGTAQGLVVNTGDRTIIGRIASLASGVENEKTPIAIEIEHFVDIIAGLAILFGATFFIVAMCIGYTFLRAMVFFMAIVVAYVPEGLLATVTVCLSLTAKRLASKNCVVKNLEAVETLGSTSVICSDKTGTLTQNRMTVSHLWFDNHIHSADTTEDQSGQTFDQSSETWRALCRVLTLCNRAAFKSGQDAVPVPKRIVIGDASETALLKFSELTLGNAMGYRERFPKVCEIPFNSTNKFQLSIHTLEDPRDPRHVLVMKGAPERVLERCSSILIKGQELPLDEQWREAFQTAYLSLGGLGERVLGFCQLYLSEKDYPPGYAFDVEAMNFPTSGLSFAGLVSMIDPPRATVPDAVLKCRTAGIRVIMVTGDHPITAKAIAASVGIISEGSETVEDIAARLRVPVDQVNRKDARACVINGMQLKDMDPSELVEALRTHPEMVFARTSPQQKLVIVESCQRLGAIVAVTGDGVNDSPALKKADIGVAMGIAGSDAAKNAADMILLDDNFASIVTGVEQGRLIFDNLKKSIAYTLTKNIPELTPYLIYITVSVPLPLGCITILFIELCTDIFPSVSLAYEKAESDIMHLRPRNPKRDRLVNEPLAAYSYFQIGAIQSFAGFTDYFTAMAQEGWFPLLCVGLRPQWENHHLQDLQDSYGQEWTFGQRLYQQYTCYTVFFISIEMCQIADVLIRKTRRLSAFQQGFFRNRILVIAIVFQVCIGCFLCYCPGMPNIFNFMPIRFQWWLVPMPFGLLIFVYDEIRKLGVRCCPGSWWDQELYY
T2 sequence (P18434 whole entry partner): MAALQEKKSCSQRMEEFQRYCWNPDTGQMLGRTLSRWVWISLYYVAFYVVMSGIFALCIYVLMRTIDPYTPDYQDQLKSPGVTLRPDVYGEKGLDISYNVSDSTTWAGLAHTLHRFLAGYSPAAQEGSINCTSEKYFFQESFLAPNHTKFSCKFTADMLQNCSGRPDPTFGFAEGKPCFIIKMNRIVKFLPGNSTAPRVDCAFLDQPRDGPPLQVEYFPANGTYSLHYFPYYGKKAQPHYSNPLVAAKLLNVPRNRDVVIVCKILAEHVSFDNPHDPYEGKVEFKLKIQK
Briefly: Reversible inhibition of hog gastric H^+/K^+-ATPase (Washout method). It counts as biochemical. Conditions: for inhibition of H^+/K^+-ATPase activity after washout: activity completely recovered to non-treated group level; for inhibition of H^+/K^+-ATPase activity before washout: at the concentration giving 50% inhibition of the proton pump. As for the experimental part: 3-1. […] Gastric vesicles were prepared from hog fundic mucosa using the method of Saccomani et al. (Saccomani […], Lewin M and Sachs G, Characterization of gastric mucosal membranes. IX. Fraction and purification of K-ATPase-containing vesicles by zonal centrifugation and free-flow electrophoresis technique. Biochem. Biophy. Acta. (BBA)-Biomembranes 465, 311-330, 1977.). This material was lyophilized and stored at -70° C. The protein content of gastric vesicles was determined by the Bradford method using bovine serum albumin as a standard (Bradford M M, A rapid and sensitive method for the quantitation of microgram quantities of protein utilizing the principle of protein-dye binding. Anal Biochem. 72, 248-254, 1976). 3-2. Determination of reversible inhibition of hog gastric H^+/K^+-ATPase Activity of H^+/K^+-ATPase in hog microsome (lyophilized vesicle) was measured by the inorganic phosphate released from ATP using an one-step colorimetric detection method at the concentration at which the test compounds have 50% inhibition of the proton pump (Chan […], and Junger K D, A direct colorimetric assay for Ca^2+-stimulated ATPase activity. Anal Biochem, 157, 375-380, 1986). […] Differentiation of their inhibition characteristics from those of omeprazole. Eur. J. Pharmacol., 187, 455-67, 1990). Lyophilized vesicle in the solution of 5 mM Pipes/Tris buffer was pre-incubated in the presence of the test compounds (the compounds of Examples 50, 64, and 94) at the concentration at which it has 50% inhibition of the proton pump. The previous reaction buffer was added with 2 mM MgCl2, 50 mM KCl, 5 uM Valinomycin, and 0.5 mM ATP and then incubated for 30 minutes at 37° C. The H^+/K^+-ATPase activity was measured using the calorimetric detection method and then the test sample was centrifuged at 100,000×g for 1 hr. The vesicles are present in the form of pellets in the test sample. The supernatant thereof was replaced with the same buffer not having the test compound. […] The H^+/K^+-ATPase activity was also measured using the calorimetric detection method. The H^+/K^+-ATPase activity before washout and after washout in the test sample was analyzed, in comparison with those in the non-treated group.

Experiment [2] has as its system basal gastric acid secretion. Kind of experiment: Inhibitory effects on basal gastric acid secretion in pylorus-ligated rats (Shay's rat model). It counts as in vivo, Sprague Dawley (SD) rats. Conditions: oral, one hour before pylorus ligation, total acid output 5 hours after ligation, male SD rats. As for the experimental part: Inhibitory effects of the compounds of the present invention on basal gastric acid secretion were performed according to Shay's rat model (Shay, H., et al., 1945, gastroenterology, 5, 43-61). Male Sprague Dawley (SD) rats (200±10 g body weight) were divided into 3 groups (n=5) and fasted for 24 hours with free access to water. Control group was orally administered with 0.5% methylcellulose alone and the other groups were orally administered with test compounds suspended in 0.5% methyl-cellulose solution at doses of 1, 3 and 10 mg/kg/5 ml one hour before pylorus ligation. Under ether anesthesia, the abdomens of the rats were incised and then the pylorus was ligated. 5 hours after ligation, the animals were sacrificed, and the gastric contents were collected. The collected contents were centrifuged at 1,000×g for 10 minutes to obtain the gastric juice. Total acid output was measured by 0.01N NaOH volume (ueq/ml) for automatic titration of the gastric juice to pH 7.0 and the ED50s of test compounds were calculated using the Litchfield-Wilcoxon method. % inhibitory activity was calculated from the following equation and the results are shown in Table 2. % inhibitory activity of test compound=(total acid output of control group−total acid output of the group treated with test compounds)/total acid output of control group X 100

The values below come from patent US7642269B2, “Pyrrolo[3,2-B]pyridine derivatives and processes for the preparation thereof” (Yuhan Corporation, priority 2005, dated 2010).

T1 sequence (P19156 2-1034 limits assumed): as the sequence (P19156 2-1034 limits assumed) above
T1 sequence (P18434 whole entry partner): as the sequence (P18434 whole entry partner) above

Consider `Cc1c(C)n(CC(C)C)c2c(OCc3ccc(F)cc3)ccnc12.Cl` [Example 50, 7-(4-fluorobenzyloxy)-1-isobutyl-2,3-dimethyl-1H-pyrrolo[3,2-b]pyridine hydrochloride], for which the IC50 (as a rule, the point on the concentration scale where inhibition reaches its midpoint) at H^+/K^+-ATPase is 2440 nM. In addition, in experiment [1], the “inhibition of H^+/K^+-ATPase activity after washout” value (“inhibition … after washout” below) is given as “did not inhibit” and the “inhibition of H^+/K^+-ATPase activity before washout” value came out at 50%. Also, the ED50 (as a rule, the dose at which the effect has come halfway, by size or by number of responders) in experiment [2] came to 2.4 mg/kg.
With `Cc1c(C)n(Cc2ccccc2)c2c(OCc3ccc(F)cc3)ccnc12.O=S(=O)(O)c1ccccc1` [Example 64, 1-benzyl-7-(4-fluorobenzyloxy)-2,3-dimethyl-1H-pyrrolo[3,2-b]pyridine benzenesulfonate], in experiment [1], the “inhibition … after washout” value is reported as “did not inhibit”.
For `COC(=O)c1ccc(Cn2c(C)c(C)c3nccc(OCc4ccc(Cl)cc4)c32)cc1.Cl` [Example 94, 7-(4-chlorobenzyloxy)-1-(4-methoxycarbonylbenzyl)-2,3-dimethyl-1H-pyrrolo[3,2-b]pyridine hydrochloride], half-maximal inhibition at H^+/K^+-ATPase (IC50) was put at 890 nM. Further, in experiment [1], the “inhibition … after washout” value is recorded as “did not inhibit” and the “inhibition of H^+/K^+-ATPase activity before washout” value amounted to 50%.
Regarding `Cc1c(C)n(CC2CC2)c2c(OCc3ccc(Cl)cc3Cl)ccnc12.Cl` [Example 139, 1-cyclopropylmethyl-7-(2,4-dichlorobenzyloxy)-2,3-dimethyl-1H-pyrrolo[3,2-b]pyridine hydrochloride], the IC50 against H^+/K^+-ATPase amounted to 20 nM. For the same molecule, it took a dose of 1.6 mg/kg to reach the 50% effect level in experiment [2] (ED50).
